{"source": "patent US20080044428A1", "about": "“Glycosylphosphatidylinositol Glycan Signalling Via Integrins Functioning as Glycan Specific Receptors” (THE WALTER AND ELIZA HALL INSTITUTE OF MEDICAL RES, priority 2004, published 2008)", "key": {"[1]": {"tested_on": "αMβ2-integrin, also known as CR3 or Mac-1", "sequence (P05107 23-769, other chains not shown)": "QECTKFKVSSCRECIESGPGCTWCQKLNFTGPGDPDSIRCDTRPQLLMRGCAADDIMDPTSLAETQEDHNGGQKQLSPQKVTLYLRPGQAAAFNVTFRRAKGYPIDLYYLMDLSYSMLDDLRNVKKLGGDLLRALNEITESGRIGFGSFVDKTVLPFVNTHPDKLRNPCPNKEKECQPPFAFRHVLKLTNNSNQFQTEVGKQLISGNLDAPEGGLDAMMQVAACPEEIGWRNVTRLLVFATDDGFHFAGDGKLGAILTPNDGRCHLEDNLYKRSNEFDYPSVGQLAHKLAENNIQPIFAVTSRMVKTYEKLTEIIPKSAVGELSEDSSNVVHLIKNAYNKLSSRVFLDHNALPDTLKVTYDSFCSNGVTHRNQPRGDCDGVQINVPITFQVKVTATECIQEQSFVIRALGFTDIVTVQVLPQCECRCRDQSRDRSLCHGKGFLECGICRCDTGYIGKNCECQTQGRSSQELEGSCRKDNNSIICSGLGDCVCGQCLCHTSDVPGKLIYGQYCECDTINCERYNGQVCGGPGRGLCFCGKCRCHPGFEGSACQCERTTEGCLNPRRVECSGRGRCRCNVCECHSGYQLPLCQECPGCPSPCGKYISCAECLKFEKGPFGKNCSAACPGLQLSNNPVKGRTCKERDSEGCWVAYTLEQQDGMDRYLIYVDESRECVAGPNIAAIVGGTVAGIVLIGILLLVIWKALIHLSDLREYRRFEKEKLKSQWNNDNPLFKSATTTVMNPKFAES", "assay": "FACS binding of fluoresceinated conjugates to CHO cells transfected with αMβ2-integrin", "conditions": "FACS analysis, CHO-Mac1 cells", "from_the_text": "(§1) Sham conjugation procedures were also followed substituting cysteine for glycan."}, "[2]": {"tested_on": "sham-transfected CHO cells (CHO-Neo)", "assay": "FACS binding of fluoresceinated conjugates to sham-transfected CHO cells", "conditions": "FACS analysis", "from_the_text": "as §1"}}}
{"substance": "fluoresceinated BSA-cysteine: sham conjugate of BSA carrier protein substituting cysteine for glycan, fluoresceinated", "values": [{"measurement": "binding to CHO cells transfected with αMβ2-integrin", "setting": "[1]", "value": 0.69, "unit": "%"}, {"measurement": "binding to sham-transfected CHO cells (CHO-Neo)", "setting": "[2]", "value": 0.4, "unit": "%"}]}
